Assay results published in patent publication US7101878B1 (Agouron Pharmaceuticals, Inc., priority 1998, dated 2006).

What was measured:
[1] = molecular target: T1, rat GnRH receptor (Rattus norvegicus, UniProt P30969); test: Radioligand binding, 125I-GnRH-A, rat pituitary membranes; set-up: membranes were prepared from rat pituitary; from tissue; host or cells: rat pituitary; settings: read-out: rGnRH IC50
T1 sequence (P30969 1-327): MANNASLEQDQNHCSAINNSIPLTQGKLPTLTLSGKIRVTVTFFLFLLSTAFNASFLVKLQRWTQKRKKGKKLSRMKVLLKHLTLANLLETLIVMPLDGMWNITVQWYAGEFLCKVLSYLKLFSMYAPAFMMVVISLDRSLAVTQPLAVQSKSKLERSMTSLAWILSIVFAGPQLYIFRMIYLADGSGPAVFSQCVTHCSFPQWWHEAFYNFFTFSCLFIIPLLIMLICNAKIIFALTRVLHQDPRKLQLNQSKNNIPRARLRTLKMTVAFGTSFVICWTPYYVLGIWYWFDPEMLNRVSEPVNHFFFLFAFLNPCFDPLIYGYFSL
Description: All compounds were diluted in 1% DMSO (final assay concentration) in binding assay buffer. […] Reactions were terminated by rapid filtration onto 96-well Packard GF/C filters soaked in 0.1% polyethyleneimine. Filters were washed three times with PBS buffer, dried and counted on a Packard Topcount by liquid scintillation counting.
Assay conditions were identical for assessing compound activities at other species. […] IC50 values for control peptides and test compounds were calculated utilizing GraphPad Prism™ software.
The reaction mixture was vortexed and incubated for 1 min at room temperature. After one min, the mixture was vortexed and allowed to incubate for an additional minute. 2 ml of 0.5 M acetic acid/1% BSA was added to the reaction tube and the mixture was added to a C18 Sep-Pak cartridge. The cartridge was washed with subsequent washes of 5 ml H2O and 5 ml 0.5M acetic acid and then eluted with 5×1 ml of 60% CH3CN/40% 0.5M acetic acid. The eluate was diluted with 3× volume of HPLC buffer A (0.1% TFA in H2O) and loaded onto a C18 column. […] The radioactive fractions (750 ed/fraction) are collected into clean polypropylene tubes containing 100 μl of 10% BSA. Fractions were assessed for biological activity by radioligand binding.

[2] = molecular target: T2, mouse GnRH receptor (Mus musculus, UniProt Q01776); test: Radioligand binding, 125I-GnRH-A, 293 cells expressing mouse GnRH receptors; settings: read-out: mGnRH IC50
T2 construct: expressed in transfected cells; host or cells: 293 cells
T2 sequence (Q01776 1-327): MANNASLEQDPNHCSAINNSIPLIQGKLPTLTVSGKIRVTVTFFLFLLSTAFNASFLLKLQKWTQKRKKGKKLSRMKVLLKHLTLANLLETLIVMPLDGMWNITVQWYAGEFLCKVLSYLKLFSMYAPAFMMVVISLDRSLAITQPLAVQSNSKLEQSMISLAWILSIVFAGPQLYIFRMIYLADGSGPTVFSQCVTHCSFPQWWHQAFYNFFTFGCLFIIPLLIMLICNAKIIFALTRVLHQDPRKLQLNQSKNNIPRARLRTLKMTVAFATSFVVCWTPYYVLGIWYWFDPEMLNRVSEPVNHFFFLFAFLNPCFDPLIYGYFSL
Method in brief: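 Bound label captured on 0.1% polyethyleneimine-treated GF/C filters, washed three times with PBS, counted. IC50 derived; identical set-up for every species.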

[3] = Pharmacokinetic studies / bioavailability in rats; type: in vivo, rat; settings: rat female
[4] = molecular target: T3, human GnRH receptor (Homo sapiens, UniProt P30968); test: Radioligand binding, 125I-GnRH-A displacement, membranes of HEK 293 cells with human GnRH receptor; settings: read-out: hGnRH IC50
T3 construct: expressed in transfected cells; host or cells: HEK 293 (hGnRH-R/293, from Dr. Stuart Sealfon)
T3 sequence (P30968 1-328): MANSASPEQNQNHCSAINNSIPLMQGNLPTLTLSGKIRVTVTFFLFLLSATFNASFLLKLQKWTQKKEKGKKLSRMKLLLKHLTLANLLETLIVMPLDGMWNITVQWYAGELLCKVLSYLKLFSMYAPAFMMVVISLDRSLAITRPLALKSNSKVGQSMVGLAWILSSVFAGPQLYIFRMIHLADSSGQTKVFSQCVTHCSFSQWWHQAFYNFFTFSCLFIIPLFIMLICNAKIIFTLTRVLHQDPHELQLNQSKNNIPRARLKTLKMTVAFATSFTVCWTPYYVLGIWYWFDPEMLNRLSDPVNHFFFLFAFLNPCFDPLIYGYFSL
Method in brief: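 After filtration and PBS washes, bound radioactivity was counted by scintillation and IC50 derived. Identical conditions applied for non-human receptors.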

[5] = female, rat, plasma, po, 10 mg/kg, p.o. 10 mg/kg, 5 mg/ml solution in 10% DMSO 10% cremophor 80% saline

Compound COc1cc(OC)c(NC(=O)c2ccc(Cc3c(OC)cc(C)c(Cl)c3C)o2)c(OC)c1 [Compound 299] has an IC50 [1] of 290 nM, an IC50 [2] of 105 nM and a Cmax [3, 5] of 1740 nM. For the same compound, the Tmax [3, 5] was 1 h, the half-life ([3]; female, rat, plasma) was 2.4 h and the Fp.o. ([3]; 5 mg/ml solution in 10% DMSO 10% cremophor 80% saline) was 72% (10 mg/kg)^10. The IC50 [4] was 80 nM.
Work on COc1cc(OC)c(NC(=O)c2ccc(Cc3cc(-c4ccccc4)c(C)cc3C)o2)c(OC)c1 [Compound 302] yielded an IC50 [1] of 220 nM, an IC50 [2] of 119 nM and an IC50 [4] of 167 nM.
For Cc1cc2c(cc1Cc1ccc(C(=O)NCc3cccc(CNc4ncccn4)c3)o1)C(C)(C)CCC2(C)C [Compound 106], the IC50 [1] was 510 nM and the IC50 [4] was 2000 nM.
For Cc1cc2c(cc1Cc1ccc(C(=O)NCc3ccc(F)cc3)o1)C(C)(C)CCC2(C)C [Compound 130], the IC50 [1] was 590 nM and the IC50 [4] was 3000 nM.
Cc1cc2c(cc1Cc1ccc(C(=O)NCC3CCCC(CNC(=O)C(F)(F)F)C3)o1)C(C)(C)CCC2(C)C (stereo not drawn) [Compound 105] showed an IC50 [1] of 250 nM, an IC50 [2] of 200 nM and an IC50 [4] of 22 nM.
COc1cc(C)c(Cc2ccc(C(=O)NCc3cnc(C)cn3)o2)cc1OC [Compound 84] showed an IC50 [1] of 770 nM and an IC50 [4] of 8000 nM.
Cc1cc(C)nc(NS(=O)(=O)c2ccc(NC(=O)c3ccc(Cc4cc5c(cc4C)C(C)(C)CCC5(C)C)o3)cc2)n1 [Compound 97] showed an IC50 [1] of 1690 nM and an IC50 [4] of 1700 nM.
Compound Cc1cc2c(cc1Cc1ccc(C(=O)NCc3ccc(CNc4nccc(NCC5CCCO5)n4)cc3)o1)C(C)(C)CCC2(C)C (stereo not drawn) [Compound 141] has an IC50 [1] of 35 nM, an IC50 [2] of 64 nM and an IC50 [4] of 150 nM.
Cc1cc2c(cc1Cc1ccc(C(=O)NCC3CCC(CNCc4cc(=O)[nH]c(=O)[nH]4)CC3)o1)C(C)(C)CCC2(C)C (stereo not drawn) [Compound 91] gave an IC50 [1] of 950 nM, an IC50 [2] of 790 nM and an IC50 [4] of 120 nM.
With Cc1cc2c(cc1Cc1ccc(C(=O)N3CCC(Nc4nccc(NCC5CCCO5)n4)CC3)o1)C(C)(C)CCC2(C)C (stereo not drawn) [Compound 94.2] the IC50 [1] was 1580 nM and the IC50 [4] was 3000 nM.
CCc1cccc(CC)c1NC(=O)c1ccc(Cc2cc3c(cc2C)C(C)(C)CCC3(C)C)o1 [Compound 86] gave an IC50 [1] of 510 nM and an IC50 [4] of 8000 nM.
For COc1cc(OC)c(NC(=O)c2ccc(Cc3cc(C(C)(C)C)ccc3OC)o2)c(OC)c1 [Compound 203], the IC50 [1] was 58 nM, the IC50 [2] was 62 nM and the IC50 [4] was 130 nM.
Cc1cc2c(cc1Cc1ccc(C(N)=O)o1)C(C)(C)CCC2(C)C [AXC- 06675] showed an IC50 [1] of 2800 nM and an IC50 [4] of 2000 nM.
Work on Cc1cc2c(cc1Cc1ccc(C(=O)NCC3CCN(c4nccc(NCC5CCCO5)n4)CC3)o1)C(C)(C)CCC2(C)C (stereo not drawn) [Compound 128] yielded an IC50 [1] of 170 nM, an IC50 [2] of 220 nM and an IC50 [4] of 220 nM.
In the case of Cc1cc2c(cc1Cc1ccc(C(=O)NCC3CCC(CNc4ncc(C#N)c(N)n4)CC3)o1)C(C)(C)CCC2(C)C (stereo not drawn) [Compound 94], the IC50 [1] is reported as 1490 nM, the IC50 [2] is reported as 1300 nM and the IC50 [4] is reported as 315 nM.
Cc1cc2c(cc1Cc1ccc(C(=O)NCc3cccc(CNC(=O)C(F)(F)F)c3)o1)C(C)(C)CCC2(C)C [Compound 116] showed an IC50 [1] of 390 nM and an IC50 [4] of 1170 nM.
For Cc1cc2c(cc1Cc1ccc(C(=O)Nc3cncc(COC(=O)c4ccc(Cc5cc6c(cc5C)C(C)(C)CCC6(C)C)o4)c3)o1)C(C)(C)CCC2(C)C [Compound 120], the IC50 [1] was > 10000 nM and the IC50 [4] was > 10000 nM.
Work on Cc1cc2c(cc1Cc1ccc(C(=O)NCC3CCC(CNc4nccc(Cl)n4)CC3)o1)C(C)(C)CCC2(C)C (stereo not drawn) [Compound 93] yielded an IC50 [1] of 5470 nM and an IC50 [4] of 8000 nM.
